Counter-ions that a name gives are not always drawn. Like-named read-outs stand apart in the source and are kept apart here.
Biological target: T1, human NK-2 receptor (Homo sapiens, UniProt P21452)
T1 construct: expressed in transfected cells; host or cells: CHO (Chinese hamster ovary) cells, membranes
T1 sequence (P21452 1-398): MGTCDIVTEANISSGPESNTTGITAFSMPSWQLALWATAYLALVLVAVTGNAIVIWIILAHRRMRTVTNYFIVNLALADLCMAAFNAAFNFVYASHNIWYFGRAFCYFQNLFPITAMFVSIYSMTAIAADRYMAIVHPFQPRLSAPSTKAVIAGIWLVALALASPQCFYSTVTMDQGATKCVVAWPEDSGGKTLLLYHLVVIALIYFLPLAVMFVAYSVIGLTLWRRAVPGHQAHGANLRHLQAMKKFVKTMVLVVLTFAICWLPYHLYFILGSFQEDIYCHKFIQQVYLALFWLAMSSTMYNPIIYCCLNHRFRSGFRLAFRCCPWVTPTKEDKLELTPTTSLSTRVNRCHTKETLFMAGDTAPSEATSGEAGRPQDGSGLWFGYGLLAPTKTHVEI
Assay: binding test, affinity for the human NK-2 receptor, competition with [125I]NKA on transfected CHO cell membranes
Description: The evaluation of the antagonist activity on NK-2 receptors has been assessed by binding and functional tests according to that already described in literature in relation to NK-2 antagonists.
The test substances have been tested within a concentration range from 0.01 nM to 10 nM. At the end of the incubation time (30 min, 20° C.) the samples have been filtered and radioactivity has been determined using a gamma-counter.

[1] = CHO cell membranes transfected with NK-2 receptor of human ileum, [125I]NKA 100 pM, 30 min, 20° C.

Compound: Cc1ccc(C=CC(=O)NC2(C(=O)NC(Cc3ccccc3)C(=O)NC3CCC(CN4CCOCC4)C3)CCc3ccccc32)cc1 (mixture of isomers) [Example 7, N^α[N^α(4(methyl)cinnamoyl)-(R,S)1-aminoindane-1-carboxy]-D-phenylalanine amide-N-[(1S,3R)-3-(morpholin-4-ylmethyl)cyclopentyl]]
- Ki [1]: 0.126 nM

Compound: NC1CCCCC1NC(=O)[C@@H]1C[C@@H](NC(=O)[C@@H](Cc2ccccc2)NC(=O)C2(NC(=O)c3cc4ccccc4s3)CCCC2)CN1 (relative stereo) [Example 36]
- pKi [1]: 10.6

Compound: NC1CCCCC1NC(=O)C1CCC(NC(=O)C(Cc2ccccc2)NC(=O)C2(NC(=O)c3cc4ccccc4s3)CCCC2)C1 (single isomer, unassigned) [Example 2]
- Ki [1]: 0.158 nM

Compound: NC1CCCCC1NC(=O)C1CCCC(NC(=O)C(Cc2ccccc2)NC(=O)C2(NC(=O)c3cc4ccccc4s3)CCCCC2)C1 (single isomer, unassigned) [Example 21]
- Ki [1]: 0.251 nM

Compound: NC1CCCCC1NC(=O)C1CCC(NC(=O)C(Cc2ccccc2)NC(=O)C2(NC(=O)c3cc4ccccc4s3)CCCCC2)C1 (single isomer, unassigned) [Example 25]
- Ki [1]: 0.251 nM

Compound: NC1CCCCC1NC(=O)C1CCCC(NC(=O)C(Cc2ccccc2)NC(=O)C2(NC(=O)c3cc4ccccc4s3)CCCCC2)C1 (single isomer, unassigned) [Example 28]
- Ki [1]: 0.0501 nM

Compound: NC1CCCCC1NC(=O)C1CCC(NC(=O)C(Cc2ccccc2)NC(=O)C2(NC(=O)c3cc4ccccc4s3)CCCC2)C1 (single isomer, unassigned) [Example 37]
- Ki [1]: 0.0126 nM

Compound: NC1CCCCC1NC(=O)C1CCC(NC(=O)C(Cc2ccccc2)NC(=O)C2(NC(=O)c3cc4ccccc4s3)CCCCC2)C1 (single isomer, unassigned) [Example 40]
- Ki [1]: 1.26 nM

Compound: NCCCCCNC(=O)C1CCCC(NC(=O)[C@@H](Cc2ccccc2)NC(=O)C2(NC(=O)c3cc4ccccc4s3)CCCCC2)C1.O=C(O)C(F)(F)F (stereo in doubt) [Example 22, N^γ{N^α[N^α(benzo[b]thiophen-2-ylcarbonyl)-1-aminocyclohexan-1-carboxy]-D-phenylalanyl}-3-cis-aminocyclohexan-1-carboxylic-acid-N-(5-aminopentyl)-amide trifluoroacetate salt]
- pKi [1]: 9.2

Compound: N[C@H]1CCCC[C@@H]1NC(=O)[C@@H]1CC[C@H](NC(=O)[C@@H](Cc2ccccc2)NC(=O)C2(NC(=O)c3ccc(-c4ccccc4)cc3)CCCC2)C1.O=C(O)C(F)(F)F [Example 3, N^γ{N^α[N^α(biphen-4-ylcarboxy)-1-aminocyclopentan-1-carboxy]-D-phenylalanyl}-(1R,3S)-3-aminocyclopentane-1-carboxylic-acid-N-((1S,2S)-2-aminocyclohexyl)amide trifluoroacetate salt]
- pKi [1]: 9.6

Compound: Cn1c(C(=O)NC2(C(=O)N[C@H](Cc3ccccc3)C(=O)N[C@H]3CC[C@@H](C(=O)N[C@H]4CCCC[C@@H]4N)C3)CCCC2)cc2ccccc21.O=C(O)C(F)(F)F [Example 4, N^γ{N^α[N^α(N-(methyl)indol-2-ylcarboxy)-1-aminocyclopentan-1-carboxy]-D-phenylalanyl}-(1R,3S)-3-aminocyclopentane-1-carboxylic-acid-N-((1S,2S)-2-aminocyclohexyl) amide trifluoroacetate salt]
- pKi [1]: 9.8

Compound: Cc1ccc(C=CC(=O)NC2(C(=O)N[C@H](Cc3ccccc3)C(=O)N[C@H]3CC[C@@H](C(=O)N[C@H]4CCCC[C@@H]4N)C3)CCCC2)cc1.O=C(O)C(F)(F)F [Example 5, N^γ{N^α[N^α[4-(methyl)cynnamoyl]-1-aminocyclopentan-1-carboxy]-D-phenylalanyl}-(1R,3S)-3-aminocyclopentane-1-carboxylic-acid-N-((1S,2S)-2-aminocyclohexyl)amide trifluoroacetate salt]
- pKi [1]: 9.7

Compound: N[C@H]1CCCC[C@@H]1NC(=O)[C@@H]1CC[C@H](NC(=O)[C@@H](Cc2ccccc2)NC(=O)C2(NC(=O)c3cc4ccccc4o3)CCCC2)C1.O=C(O)C(F)(F)F [Example 6]
- pKi: 9.7

Compound: Cc1ccc(C[C@@H](NC(=O)C2(NC(=O)c3cc4ccccc4s3)CCCC2)C(=O)N[C@H]2CC[C@@H](C(=O)N[C@H]3CCCC[C@@H]3N(C)C)C2)cc1 [Example 9, N^γ{N^α[N^α(benzo[b]thiophen-2-ylcarbonyl)-1-aminocyclopentan-1-carboxy]-D-4-methyl-phenylalanyl}-(1R,3S)-3-aminocyclopentane-1-carboxylic-acid-N-(1S,2S)-2-dimethyl aminocyclohexyl)amide hydrochloride salt]
- Ki [1]: 1.58 nM

Compound: Cc1ccc(C=CC(=O)NC2(C(=O)NC(Cc3ccccc3)C(=O)NC3CCC(C(=O)NC4CCCCC4N(C)C)C3)CCCC2)cc1 [Example 10, N^γ{N^α[N^α(4-methyl-cinnamoyl)-1-aminocyclopentan-1-carboxy]-D-phenylalanyl}-(1R,3S)-3-aminocyclopentane-1-carboxylic-acid-N-((1S,2S)-2-dimethylaminocyclohexyl)amide hydrochloride salt]
- Ki [1]: 0.501 nM

Compound: CN(C)[C@H]1CCCC[C@@H]1NC(=O)[C@@H]1CC[C@H](NC(=O)[C@@H](Cc2ccccc2)NC(=O)C2(NC(=O)c3cc4ccccc4o3)CCCC2)C1 [Example 11, N^γ{N^α[N^α(benzofuran-2-ylcarboxy)-1-aminocyclopentan-1-carboxy]-D-phenylalanyl}-(1R,3S)-3-aminocyclopentane-1-carboxylic-acid-N-((1S,2S)-2-dimethylaminocyclohexyl)amide hydrochloride salt]
- Ki [1]: 2 nM

Compound: CN(C)[C@H]1CCCC[C@@H]1NC(=O)[C@@H]1CC[C@H](NC(=O)[C@@H](Cc2ccccc2)NC(=O)C2(NC(=O)c3ccc(-c4ccccc4)cc3)CCCC2)C1 [Example 12, N^γ{N^α[N^α(biphen-4-ylcarbonyl)-1-aminocyclopentan-1-carboxy]-D-phenylalanyl}-(1R,3S)-3-aminocyclopentane-1-carboxylic-acid-N-((1S,2S)-2-dimethylaminocyclohexyl)amide hydrochloride salt]
- Ki [1]: 0.316 nM

Compound: CN(C)[C@H]1CCCC[C@@H]1NC(=O)[C@@H]1CC[C@H](NC(=O)[C@@H](Cc2ccccc2)NC(=O)C2(NC(=O)c3cc4ccccc4n3C)CCCC2)C1 [Example 13, N^γ{N^α[N^α((methyl)indol-2-ylcarboxy)-1-aminocyclopentan-1-carboxy]-D-phenylalanyl}-(1R,3S)-3-aminocyclopentane-1-carboxylic-acid-N-((1S,2S)-2-dimethylaminocyclohexyl)amide hydrochloride salt]
- Ki [1]: 1 nM

Compound: CC[C@@](C)(NC(=O)c1cc2ccccc2s1)C(=O)N[C@H](Cc1ccccc1)C(=O)N[C@H]1CC[C@@H](C(=O)N[C@H]2CCCC[C@@H]2N)C1.O=C(O)C(F)(F)F [Example 14, N^γ{N^α[N^α(benzo[b]thiophen-2-ylcarbonyl)-(R)-α-methyl-α-ethylglycyl]-D-phenylalanyl}-(1R,3S)3-amino cyclopentane-1-carboxylic-acid-N-((1S,2S)-2-aminocyclohexyl) amide trifluoroacetate salt]
- pKi [1]: 9.9

Compound: CC[C@@](C)(NC(=O)C=Cc1ccc(C)cc1)C(=O)N[C@H](Cc1ccccc1)C(=O)N[C@H]1CC[C@@H](C(=O)N[C@H]2CCCC[C@@H]2N)C1.O=C(O)C(F)(F)F [Example 15, N^γ{N^α[N^α(4-methylcinnamoyl)-(R)-α-methyl-α-ethylglycyl]-D-phenylalanyl}-(1R,3S)-3-amino cyclopentane-1-carboxylic-acid-N-((1S,2S)-2-aminocyclohexyl) amide trifluoroacetate salt]
- pKi [1]: 10.0
